What all share (type): cell-based
Assay [1] relates to Aspergillus fumigatus L98H (TR34/L98H). Put plainly: Planktonic fungus growth: broth microdilution assay (L98H). Particulars: Aspergillus fumigatus, read-out: MIC75 Values against Aspergillus fumigatus isolate L98H. Here is the method:
(§1) This assay was conducted using a modified method published by EUCAST (Rodriguez-Tudela, et al., 2008). Spores of Aspergillus fumigatus (NCPF2010, NCPF7010 [methionine 220 mutation], NCPF7099 [Glycine G54 mutation]) from Public Health England, Wiltshire; TR34/L98H mutants from St Louis Hospital, Paris, France; TR46/Y121F/T289A mutants from University of Delhi, Delhi, India) were cultured in Sabouraud dextrose agar for 3 days. A stock spore suspension was prepared from a Sabouraud dextrose agar culture by washing with PBS-tween (10 mL; phosphate buffered saline containing 0.05% Tween-20, 100 U/mL penicillin and 100 U/mL streptomycin). The spore count was assessed using a Neubauer haemocytometer and then adjusted to 10^6 spores/mL with PBS. A working suspension of spores (2×10^5 spores/mL) was prepared in filter sterilised, BSA MOPS RPMI-1640 (50 mL; RPMI-1640 containing 2 mM L-glutamine, 0.5% BSA, 2% glucose, 0.165 M MOPS, buffered to pH 7 with NaOH).
(§2) For the assay, BSA MOPS RPMI-1640 (50 μL/well) was added throughout the 384-well plate (Catalogue number 353962, BD Falcon, Oxford, UK) first. Test compounds (0.5 μL DMSO solution) were then added in quadruplicate using an Integra VIAFLO 96 (Integra, Zizers, Switzerland), and mixed well using a plate mixer. Subsequently 50 μL of the working spore suspension prepared above was added to all wells except non-spore control wells. For non-spore control wells, BSA MOPS-RPMI solution (50 μL/well) was added instead. The plate was covered with a plastic lid, and incubated (35° C. with ambient air) for 48 hr. The OD of each well at 530 nm was determined using a multi-scanner (Clariostar: BMG, Buckinghamshire, UK). The percentage inhibition for each well was calculated and the MIC50, MIC75 and MIC90 values were calculated from the concentration-response curve generated for each test compound.
On the technique in general: In broth dilution the organism is exposed to a series of concentrations in liquid medium.

In assay [2] the test system is Aspergillus fumigatus NCPF7100. In words: Planktonic fungus growth: broth microdilution assay (NCPF7100). To be noted: Aspergillus fumigatus, NCPF7100, read-out: MIC75 Values against Aspergillus fumigatus isolate NCPF7100.
Assay [3] has as its system Aspergillus fumigatus TR46 (TR46/Y121F/T289A). In words: Planktonic fungus growth: broth microdilution assay (TR46). To be noted: Aspergillus fumigatus, read-out: MIC75 Values against Aspergillus fumigatus isolate TR46. Here is the method: as §1, §2
Assay [4] relates to Aspergillus fumigatus NCPF2010. Put plainly: Planktonic fungus growth: broth microdilution assay (NCPF2010). Particulars: Aspergillus fumigatus, NCPF2010, n = 2-3, read-out: MIC75 Values against Aspergillus fumigatus isolate NCPF2010. Here is the method: as §1, §2
The next assay deals with Candida glabrata 20197.1. Put plainly: Fungus panel screening, CLSI broth microdilution. To be noted: Nakaseomyces glabratus; for MIC50: 50% inhibition by visual inspection (CLSI); for MIC: 100% inhibition by visual inspection (CLSI), read-out: MIC100. The protocol:
(§3) Fungus panel screening was conducted by Eurofins Panlabs Inc. The MIC and MIC50 values of the test articles were determined following the guidelines of the CLSI: broth microdilution methods for yeast (CLSI M27-A2), (CLSI, 2002) and for filamentous fungi (CLSI M38-A), (CLSI, 2008).

In assay [5] the test system is Aspergillus flavus ATCC204304. Put plainly: Fungus panel screening, CLSI broth microdilution. Particulars: for MIC50: 50% inhibition by visual inspection (CLSI); for MIC: 100% inhibition by visual inspection (CLSI), read-out: MIC100. The protocol: as §3
Assay [6] relates to Candida albicans 20240.047. In words: Fungus panel screening, CLSI broth microdilution. To be noted: for MIC50: 50% inhibition by visual inspection (CLSI); for MIC: 100% inhibition by visual inspection (CLSI), read-out: MIC100. The protocol: as §3
For assay [7], the system named is Chaectomium globosum ATCC44699. In words: Fungus panel screening, CLSI broth microdilution. Particulars: for MIC50: 50% inhibition by visual inspection (CLSI); for MIC: 100% inhibition by visual inspection (CLSI), read-out: MIC100. The protocol:
as §3

Assay [8] concerns Trichophyton rubrum ATCC10218. Put plainly: Fungus panel screening, CLSI broth microdilution. To be noted: for MIC50: 50% inhibition by visual inspection (CLSI); for MIC: 100% inhibition by visual inspection (CLSI), read-out: MIC100. Here is the method: as §3

Values after ≈ are worked out from the molar mass of the structure shown.

The MIC50 is the lowest concentration that inhibits either 50% of growth or 50% of the strains tested, depending on the study.

Regarding `C[C@@H](c1ncncc1F)[C@](O)(Cn1cncn1)c1ccc(F)cc1F` [Voriconazole], the MIC in assay [1] was 2.58 µM (≈ 0.903 µg/mL); in [2], 0.543 µM (≈ 0.19 µg/mL); in [3], over 2.86 µM; in assay [4], 0.511 µM (≈ 0.179 µg/mL); in the assay on Candida glabrata 20197.1 it was over 8 µg/mL; in assay [5], 2 µg/mL (≈ 5.73 µM). Moreover, the MIC was over 8 µg/mL in assay [6], 1 µg/mL (≈ 2.86 µM) in assay [7] and 0.063 µg/mL (≈ 0.18 µM) in [8]. The MIC50 with Candida glabrata 20197.1 is 0.031 µg/mL (≈ 0.0887 µM); in assay [5], 1 µg/mL (≈ 2.86 µM); in assay [6], 0.031 µg/mL (≈ 0.0887 µM); in assay [7], 0.5 µg/mL (≈ 1.43 µM); in assay [8], under 0.008 µg/mL.

Regarding `Cc1cc(N2CCN(c3ccc(C(=O)N[C@H]4CCCC[C@@H]4O)cc3)CC2)ccc1OC[C@@H]1CO[C@@](Cn2cncn2)(c2ccc(F)cc2F)C1` [Compound (Ia), 4-(4-(4-(((3R,5R)-5-((1H-1,2,4-triazol-1-yl)methyl)-5-(2,4-difluorophenyl)tetrahydrofuran-3-yl)methoxy)-3-methylphenyl)piperazin-1-yl)-N-((1S,2S)-2-hydroxycyclohexyl) benzamide], the MIC is 0.0127 µM (≈ 0.00872 µg/mL) in assay [1]; 0.0127 µM (≈ 0.00872 µg/mL) in assay [2]; 0.093 µM (≈ 0.0639 µg/mL) in assay [3]; 0.00281 µM (≈ 0.00193 µg/mL) in assay [4]; over 2 µg/mL in the assay with Candida glabrata 20197.1; 0.13 µg/mL (≈ 0.189 µM) in assay [5]. The values for the MIC in [6], in assay [7] and in assay [8] were over 2 µg/mL, 0.13 µg/mL (≈ 0.189 µM) and 0.031 µg/mL (≈ 0.0451 µM), respectively. In addition, the MIC50 in the assay on Candida glabrata 20197.1 was found to be 0.0078 µg/mL (≈ 0.0114 µM); in assay [5] it was 0.13 µg/mL (≈ 0.189 µM); in assay [6], 0.016 µg/mL (≈ 0.0233 µM); in assay [7], 0.031 µg/mL (≈ 0.0451 µM).

For the compound `CC[C@@H]([C@H](C)O)n1ncn(-c2ccc(N3CCN(c4ccc(OC[C@@H]5CO[C@@](Cn6cncn6)(c6ccc(F)cc6F)C5)cc4)CC3)cc2)c1=O` [Posaconazole, reference compound], the MIC in [1] is 0.0983 µM (≈ 0.0689 µg/mL); in [2] it was 0.0597 µM (≈ 0.0418 µg/mL); in assay [3] it was 0.414 µM (≈ 0.29 µg/mL); in [4], 0.0109 µM (≈ 0.00764 µg/mL); in the assay on Candida glabrata 20197.1, over 8 µg/mL; in [5], 0.13 µg/mL (≈ 0.186 µM). The values for the MIC in assay [6], in [7] and in assay [8] were over 8 µg/mL, 0.25 µg/mL (≈ 0.357 µM) and 0.031 µg/mL (≈ 0.0442 µM), respectively. Also, the MIC50 in the assay with Candida glabrata 20197.1 was 0.031 µg/mL (≈ 0.0442 µM); in assay [5], 0.063 µg/mL (≈ 0.0899 µM); in [6], 0.031 µg/mL (≈ 0.0442 µM); in assay [7], 0.13 µg/mL (≈ 0.186 µM); in [8] it was under 0.008 µg/mL.

Source of the values: patent publication US10513511B2, “Aqueous suspension formulation comprising 4-(4-(4-(((3R,5R)-5-((1H-1,2,4-triazol-1-yl)methyl)-5-(2,4-difluoro-phenyl)tetrahydrofuran-3-yl)methoxy)-3-methylphenyl) or a pharmaceutically acceptable salt thereof” (PULMOCIDE LIMITED, priority 2015, dated 2019).
